The target in assay [1] is T1, PTPN2 (i.e., TC-PTP) (Homo sapiens, UniProt P17706).
T1 sequence (P17706 1-415): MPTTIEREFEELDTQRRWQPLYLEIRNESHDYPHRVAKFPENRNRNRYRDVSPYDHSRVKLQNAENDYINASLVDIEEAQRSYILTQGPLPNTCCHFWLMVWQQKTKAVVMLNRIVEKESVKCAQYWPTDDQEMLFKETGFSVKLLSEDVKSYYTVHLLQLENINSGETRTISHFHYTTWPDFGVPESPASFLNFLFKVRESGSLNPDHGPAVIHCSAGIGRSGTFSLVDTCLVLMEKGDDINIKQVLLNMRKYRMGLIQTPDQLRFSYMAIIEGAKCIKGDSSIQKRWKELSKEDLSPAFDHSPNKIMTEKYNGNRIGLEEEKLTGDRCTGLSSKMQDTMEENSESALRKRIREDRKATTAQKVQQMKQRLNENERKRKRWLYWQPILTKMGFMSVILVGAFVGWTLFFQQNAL
The assay is described as follows: Phosphatase activity assay (DiFMUP substrate), PTPN2. The following applies: compounds binned ≤1 uM or >1 uM. In kind it is biochemical. The gist of the method:
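First, serially diluted inhibitor is mixed about 2 minutes with enzyme in pH 7.5 HEPES/NaCl/EDTA/DTT/Tween-20 buffer. Next, DiFMUP is added at the enzyme's Km, approximately 45 μM for PTPN2. Finally, DiFMU appearance is read continuously at room temperature and rates are fitted for IC50.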

Assay [2] has as its target T2, PTPN1 (i.e., PTP1B) (Homo sapiens, UniProt P18031).
T2 sequence (P18031 1-435): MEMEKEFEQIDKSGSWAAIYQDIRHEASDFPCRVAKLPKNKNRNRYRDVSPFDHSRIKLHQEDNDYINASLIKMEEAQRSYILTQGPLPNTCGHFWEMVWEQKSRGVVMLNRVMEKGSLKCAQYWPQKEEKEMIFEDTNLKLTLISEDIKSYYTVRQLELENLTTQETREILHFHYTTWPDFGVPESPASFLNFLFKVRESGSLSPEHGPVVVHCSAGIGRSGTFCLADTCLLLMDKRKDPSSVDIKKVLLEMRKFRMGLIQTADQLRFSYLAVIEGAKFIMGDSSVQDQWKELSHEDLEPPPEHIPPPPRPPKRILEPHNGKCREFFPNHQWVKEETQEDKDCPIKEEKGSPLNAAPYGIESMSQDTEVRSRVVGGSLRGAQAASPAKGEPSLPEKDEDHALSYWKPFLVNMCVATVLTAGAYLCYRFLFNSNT
The assay is described as follows: Phosphatase activity assay (DiFMUP substrate), PTP1B. In kind it is biochemical. The following applies: compounds binned ≤1 uM or >1 uM. The gist of the method:
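Enzyme (e.g. PTPN2 0.025 ng/ul) mixed about 2 min with compound at 10 serial concentrations in 50 mM HEPES pH 7.5, 150 mM NaCl, 0.5 mM EDTA, 1 mM DTT, 0.001% Tween-20 at room temperature. DiFMUP added at each enzyme's Km (about 45 μM for PTPN2). DiFMU fluorescence (ex 360/em 450 nm) followed 15-30 min; IC50 from 4-parameter fit of rates.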

Structures are written as SMILES.

On to `O=C1CN(c2c(O)ccc(-c3ccc(N4CCCC4)nc3)c2F)S(=O)(=O)N1` [Compound 177, 5-(2-fluoro-6-hydroxy-3-(6-(pyrrolidin-1-yl)pyridin-3-yl)phenyl)-1,2,5-thiadiazolidin-3-one 1,1-dioxide], for which the IC50 in assay [1] and in assay [2] was at most 1000 nM each time.

For `Cn1ccc(-c2ccc(F)c(N3CC(=O)NS3(=O)=O)c2F)c1` [Compound 116, 5-(2,6-difluoro-3-(1-methyl-1H-pyrrol-3-yl)phenyl)-1,2,5-thiadiazolidin-3-one 1,1-dioxide], the IC50 in assay [1] and in assay [2] was over 1000 nM in each case.

In the case of `O=C1CN(c2c(O)ccc(-c3cnn(Cc4ccc(F)c(F)c4)c3)c2F)S(=O)(=O)N1` [Compound 211, 5-(3-(1-(3,4-difluorobenzyl)-1H-pyrazol-4-yl)-2-fluoro-6-hydroxyphenyl)-1,2,5-thiadiazolidin-3-one 1,1-dioxide], the IC50 in assay [1] and in assay [2] was at most 1000 nM each time.

`O=C1CN(c2c(O)ccc(-c3ccnc(-c4ccccc4)c3)c2F)S(=O)(=O)N1` [Compound 136, 5-(2-fluoro-6-hydroxy-3-(2-phenylpyridin-4-yl)phenyl)-1,2,5-thiadiazolidin-3-one 1,1-dioxide]: the values for the IC50 in assay [1] and in assay [2] were over 1000 nM and at most 1000 nM, respectively.

Regarding `COc1cc(-c2ccc(O)c(N3CC(=O)NS3(=O)=O)c2F)c(F)cn1` [Compound 206, 5-(2-fluoro-3-(5-fluoro-2-methoxypyridin-4-yl)-6-hydroxyphenyl)-1,2,5-thiadiazolidin-3-one 1,1-dioxide], the IC50 in assay [1] and in assay [2] was at most 1000 nM throughout.

For `N#C[C@H]1CC[C@H](n2cc(-c3ccc(O)c(N4CC(=O)NS4(=O)=O)c3F)cn2)CC1` [Compound 305, (1r,4r)-4-(4-(3-(1,1-dioxido-4-oxo-1,2,5-thiadiazolidin-2-yl)-2-fluoro-4-hydroxyphenyl)-1H-pyrazol-1-yl)cyclohexane-1-carbonitrile], the IC50 in assay [1] and in assay [2] was at most 1000 nM in each case.

Regarding `CO[C@H]1CC[C@H](n2cc(-c3ccc(O)c(N4CC(=O)NS4(=O)=O)c3F)cn2)CC1` [Compound 426, 5-(2-fluoro-6-hydroxy-3-(1-((1r,4r)-4-methoxycyclohexyl)-1H-pyrazol-4-yl)phenyl)-1,2,5-thiadiazolidin-3-one 1,1-dioxide], the IC50 in assay [1] and in assay [2] was at most 1000 nM throughout.

On to `O=C1CN(c2c(O)ccc(-c3cnn(Cc4cccc(Cl)c4)c3)c2F)S(=O)(=O)N1` [Compound 223, 5-(3-(1-(3-chlorobenzyl)-1H-pyrazol-4-yl)-2-fluoro-6-hydroxyphenyl)-1,2,5-thiadiazolidin-3-one 1,1-dioxide], for which the IC50 in assay [1] and in assay [2] was at most 1000 nM each time.

In the case of `O=C1CN(c2c(O)ccc(-c3cn(C4CCC(F)(F)CC4)cn3)c2F)S(=O)(=O)N1` [Compound 268, 5-(3-(1-(4,4-difluorocyclohexyl)-1H-imidazol-4-yl)-2-fluoro-6-hydroxyphenyl)-1,2,5-thiadiazolidin-3-one 1,1-dioxide], the IC50 in assay [1] and in assay [2] was at most 1000 nM each time.

As to `O=C1CN(c2c(O)ccc(-c3cn(C4CCS(=O)(=O)CC4)cn3)c2F)S(=O)(=O)N1` [Compound 412, 5-(3-(1-(1,1-dioxidotetrahydro-2H-thiopyran-4-yl)-1H-imidazol-4-yl)-2-fluoro-6-hydroxyphenyl)-1,2,5-thiadiazolidin-3-one 1,1-dioxide], the IC50 in assay [1] and in assay [2] was at most 1000 nM throughout.

`N#Cc1cc(F)cc(-n2cnc(-c3ccc(O)c(N4CC(=O)NS4(=O)=O)c3F)c2)c1` [Compound 433, 3-(4-(3-(1,1-dioxido-4-oxo-1,2,5-thiadiazolidin-2-yl)-2-fluoro-4-hydroxyphenyl)-1H-imidazol-1-yl)-5-fluorobenzonitrile]: the IC50 in assay [1] and in assay [2] was at most 1000 nM each time.

In the case of `CS(=O)(=O)n1nc(C2CC2)cc1-c1ccc(O)c(N2CC(=O)NS2(=O)=O)c1F` [Compound 495, 5-(3-(3-cyclopropyl-1-(methylsulfonyl)-1H-pyrazol-5-yl)-2-fluoro-6-hydroxyphenyl)-1,2,5-thiadiazolidin-3-one 1,1-dioxide], the IC50 in assay [1] and in assay [2] was at most 1000 nM in each case.

In the case of `O=C1CN(c2c(O)ccc(-c3ncc(C4CC4)[nH]3)c2F)S(=O)(=O)N1` [Compound 347, 5-(3-(5-cyclopropyl-1H-imidazol-2-yl)-2-fluoro-6-hydroxyphenyl)-1,2,5-thiadiazolidin-3-one 1,1-dioxide], the IC50 in assay [1] and in assay [2] was at most 1000 nM throughout.

In the case of `O=C1CN(c2c(O)ccc(-c3cn(-c4ccc(C(F)(F)F)cc4)cn3)c2F)S(=O)(=O)N1` [Compound 318, 5-(2-fluoro-6-hydroxy-3-(1-(4-(trifluoromethyl)phenyl)-1H-imidazol-4-yl)phenyl)-1,2,5-thiadiazolidin-3-one 1,1-dioxide], the IC50 in assay [1] and in assay [2] was at most 1000 nM each time.

Turning to `O=C1CN(c2c(O)ccc(-c3cc(C(F)(F)F)n[nH]3)c2F)S(=O)(=O)N1` [Compound 247, 5-(2-fluoro-6-hydroxy-3-(3-(trifluoromethyl)-1H-pyrazol-5-yl)phenyl)-1,2,5-thiadiazolidin-3-one 1,1-dioxide], the IC50 in assay [1] and in assay [2] was at most 1000 nM throughout.

On to `O=C1CN(c2c(O)ccc(-c3cn(C4CCC(Br)CC4)cn3)c2F)S(=O)(=O)N1` (stereo not drawn) [Compound 423, 5-(3-(1-(4-bromocyclohexyl)-1H-imidazol-4-yl)-2-fluoro-6-hydroxyphenyl)-1,2,5-thiadiazolidin-3-one 1,1-dioxide], for which the IC50 in assay [1] and in assay [2] was at most 1000 nM each time.

Take `O=C1CN(c2c(O)ccc(-c3cc(C4CCCC4)n[nH]3)c2F)S(=O)(=O)N1` [Compound 266, 5-(3-(3-cyclopentyl-1H-pyrazol-5-yl)-2-fluoro-6-hydroxyphenyl)-1,2,5-thiadiazolidin-3-one 1,1-dioxide]: the IC50 in assay [1] and in assay [2] was at most 1000 nM throughout.

Consider `O=C1CN(c2c(O)ccc(-c3cnn(C4CCCCC4)c3)c2F)S(=O)(=O)N1` [Compound 160, 5-(3-(1-cyclohexyl-1H-pyrazol-4-yl)-2-fluoro-6-hydroxyphenyl)-1,2,5-thiadiazolidin-3-one 1,1-dioxide], for which the IC50 in assay [1] and in assay [2] was at most 1000 nM in each case.

As for `O=C1CN(c2c(O)ccc(-c3ccnc(OCC4CC4)c3)c2F)S(=O)(=O)N1` [Compound 167, 5-(3-(2-(cyclopropylmethoxy)pyridin-4-yl)-2-fluoro-6-hydroxyphenyl)-1,2,5-thiadiazolidin-3-one 1,1-dioxide], the IC50 in assay [1] and in assay [2] was at most 1000 nM throughout.

With `O=C1CN(c2c(O)ccc(-c3cc(C#CC4CCCCC4)n[nH]3)c2F)S(=O)(=O)N1` [Compound 253, 5-(3-(3-(cyclohexylethynyl)-1H-pyrazol-5-yl)-2-fluoro-6-hydroxyphenyl)-1,2,5-thiadiazolidin-3-one 1,1-dioxide], the IC50 in assay [1] and in assay [2] was at most 1000 nM throughout.

`O=C1CN(c2c(O)ccc(-c3cnn(C4CC5(CC5)C4)c3)c2F)S(=O)(=O)N1` [Compound 414, 5-(2-fluoro-6-hydroxy-3-(1-(spiro[2.3]hexan-5-yl)-1H-pyrazol-4-yl)phenyl)-1,2,5-thiadiazolidin-3-one 1,1-dioxide]: the IC50 in assay [1] and in assay [2] was at most 1000 nM throughout.

With `Cn1nc(-c2ccc(O)c(N3CC(=O)NS3(=O)=O)c2F)nc1C1CC1(F)F` (stereo not drawn) [Compound 540, 5-(3-(5-(2,2-difluorocyclopropyl)-1-methyl-1H-1,2,4-triazol-3-yl)-2-fluoro-6-hydroxyphenyl)-1,2,5-thiadiazolidin-3-one 1,1-dioxide], the IC50 in assay [1] and in assay [2] was at most 1000 nM throughout.

Consider `CC(C)c1cc(-c2ccc(O)c(N3CC(=O)NS3(=O)=O)c2F)[nH]n1` [Compound 379, 5-(2-fluoro-6-hydroxy-3-(3-isopropyl-1H-pyrazol-5-yl)phenyl)-1,2,5-thiadiazolidin-3-one 1,1-dioxide], for which the IC50 in assay [1] and in assay [2] was at most 1000 nM each time.

`COc1ccc(-c2ccc(O)c(N3CC(=O)NS3(=O)=O)c2F)cn1` [Compound 213, 5-(2-fluoro-6-hydroxy-3-(6-methoxypyridin-3-yl)phenyl)-1,2,5-thiadiazolidin-3-one 1,1-dioxide]: the IC50 in assay [1] and in assay [2] was at most 1000 nM throughout.

The IC50 is the concentration that inhibits the measured activity by half.

Values taken from patent US20240398828A1, “HETERO-ATOM CONTAINING COMPOUNDS AND USES THEREOF” (Kumquat Biosciences Inc., priority 2021, published 2024).
